From US12502393B2, “Dual mode of action soluble guanylate cyclase activators and phosphodiesterase inhibitors and uses thereof” (TOPADUR PHARMA AG, priority 2018, dated 2025)
Like-named read-outs stand apart in the source and are kept apart here.

Assays:
[1] = Human plasma protein binding; format: in vitro ADME; details: for fraction unbound: human
Protocol: An aliquot of 200 μL of human plasma containing test compound was spiked into donor well (red chamber) of the insert. 350 μL of PBS was spiked into receiver well (white chamber) of the insert.
The samples were matrix equilibrated with opposite matrix (25 μL of plasma/buffer sample was matched with 25 μL of blank buffer/plasma). Matrix matched samples were precipitated with 200 μL of acetonitrile containing internal standard. Samples were vortexed at 1000 rpm for 5 min and centrifuged at 4000 rpm for 10 min. Supernatant was separated, diluted 2 fold with water and analysed in LC-MS/MS. (Table 2).

[2] = molecular target: T1, recombinant human (rh) PDE5A (Homo sapiens, UniProt O76074); assay: Phosphodiesterase-5 activity assay (radiometric SPA); format: biochemical; details: rhPDE5A1, 0.5 μM cGMP, 20 min at 37° C.
T1 construct: GST; purchased SIGMA E9034

Human Platelets = assay: Total cGMP in human platelets; format: cell-based; details: 1 μM riociguat and 100 nM BAY 190954, incubation 2 h
Protocol: Effects of test and reference compounds on total cGMP in human platelets were investigated as described by Dunkern and Hatzelmann (Cell Signal. 17: 331-9, 2005) with modifications. Briefly, buffy coats (acquired form SRK Blutspende Zurich) were 4-fold diluted in 150 mM sodium chloride solution containing 0.9% sodium citrate and centrifuged at 200 g for 10 min. The resulting platelet-rich plasma was supplemented with a 1/10 volume of ACD solution (85 mM sodium citrate, 111 mM D-glucose, 71 mM citric acid, pH 4.4) and apyrase (Sigma AG) to a final concentration of 2 U/ml. After another centrifugation (1400 g, 10 min) the cellular pellet was resuspended in Ca2+/Mg2+-free Hepes-Tyrode buffer (134 mM NaCl, 12 mM NaHCO3, 2.9 mM KCl, 0.36 mM NaH2PO4, 5 mM HEPES, 5 mM glucose, 0.5% (w/v) bovine serum albumin, pH 7.4) and platelets were counted.
Platelets were used at 9×10^7 cells in 100 μl per well and after adding test and reference compounds the incubation volume was 200 μl per well in Hepes-Tyrode. Experiments in platelets were done in presence of 1 μM riociguat and 100 nM BAY 190954 (PDE2 inhibitor) (Lucerna Chem AG) and test/reference compounds were added after a preincubation time of 15 min. At the end of the incubation time (see below) the reaction was terminated by adding 20 μl of 2N HCl per well. Following a 20 sec on a plate shaker (300 rpm) the plate was left for 15 min and then centrifuged at 1000×g for 5 min. Supernatants were stored at −80° C.
cGMP was determined by a commercially available ELISA kit (Direct cGMP ELISA kit, Enzo Life Sciences AG, Lauren, Switzerland) with a lower detection limit of 0.08 pmol/ml using the acetylation protocol following manufacturer's instructions. Results are given as the means from at least two independent experiments each in triplicate.
To study concentration-dependent effects on total cGMP test and reference compounds were investigated from 0.1 nM to 1 μM in half-logarithmic steps with an incubation time of 2 h. To examine the time course the incubation times were (min) 10, 30, 60, 90, 120 at 1 μM of test or reference compound.
Compounds were diluted from stock solutions in DMSO. The final concentration of DMSO in all wells including the vehicle controls was 0.2% for human trabecular meshwork and rat aortic smooth muscle cells and 0.3% for platelets.
From time course experiments, the time to half of the maximum cGMP increase with 1 μM of test compound has been extrapolated (t0.5max).

[3] = tested on: Human Trabecular Meshwork Cells; assay: Cellular cGMP assay in human trabecular meshwork cells; format: cell-based; details: HTMC, 10 μM Riociguat
[4] = read-out: % Unbound in human plasma
[5] = read-out: % Bound in human plasma (converted)

IC50 [2] [nM]	fraction unbound [1, 5]	Structure (SMILES)	% Bound in human plasma [1] [%]	fraction unbound [1, 4]	Ratio Maximum cGMP increase vs Baseline (Human Platelets)	Concentration (nM) for 3-fold or 2-fold* cGMP increase vs Baseline ([3]; 2-fold increase (values marked *))	Ratio Maximum cGMP increase vs Baseline ([3]; 5 mM GSH, incubation 2 h)
0.16	0.0173	CCCc1nc(C)c2c(=O)[nH]c(-c3cc(S(=O)(=O)N4CCC([C@H](O)CO[N+](=O)[O-])CC4)ccc3OCC)nn12 [Compound 2d, (S)-2-(1-((4-ethoxy-3-(5-methyl-4-oxo-7-propyl-3,4-dihydroimidazo[5,1-f][1,2,4]triazin-2-yl)phenyl)sulfonyl)piperidin-4-yl)-2-hydroxyethyl nitrate]	–	0.0173	–	–	–
2	–	CCCc1nn(C)c2c(=O)[nH]c(-c3cc(S(=O)(=O)N4CCC(C(O)(CCO)CCO)CC4)ccc3OCC)nc12 [Compound 15, 5-(2-ethoxy-5-((4-(1,3,5-trihydroxypentan-3-yl)piperidin-1-yl)sulfonyl)phenyl)-1-methyl-3-propyl-1,6-dihydro-7H-pyrazolo[4,3-d]pyrimidin-7-one]	–	–	–	–	–
8.5	0.036	CCCc1nn(C)c2c(=O)[nH]c(-c3cc(S(=O)(=O)N4CCC(C(O)C(CO)CO)CC4)ccc3OCC)nc12 (stereo not drawn) [Compound 22, 5-(5-((4-(1,3-dihydroxy-2-(hydroxymethyl)propyl)piperidin-1-yl)sulfonyl)-2-ethoxyphenyl)-1-methyl-3-propyl-1,6-dihydro-7H-pyrazolo[4,3-d]pyrimidin-7-one]	–	0.036	–	–	–
0.07	–	CCCc1nc(C)c2c(=O)[nH]c(-c3cc(S(=O)(=O)N4CCC([C@H](O)CO)CC4)ccc3OCC)nn12 [Compound 26, (S)-2-(5-((4-(1,2-dihydroxyethyl)piperidin-1-yl)sulfonyl)-2-ethoxyphenyl)-5-methyl-7-propyl imidazo[5,1-f][1,2,4]triazin-4(3H)-one]	–	–	–	–	–
0.19	0.069	CCCc1nc(C)c2c(=O)[nH]c(-c3cc(S(=O)(=O)N4CCC(C(O)(CCO)CCO)CC4)ccc3OCC)nn12 [Compound 28, 2-(2-ethoxy-5-((4-(1,3,5-trihydroxypentan-3-yl)piperidin-1-yl)sulfonyl)phenyl)-5-methyl-7-propylimidazo[5,1-f][1,2,4]triazin-4(3H)-one]	–	0.069	–	–	–
0.37	–	CCCc1nc(C)c2c(=O)[nH]c(-c3cc(S(=O)(=O)N4CCC(C(O)C(CO)CO)CC4)ccc3OCC)nn12 (stereo not drawn) [Compound 29, 2-(5-((4-(1,3-dihydroxy-2-(hydroxymethyl)propyl)piperidin-1-yl)sulfonyl)-2-ethoxyphenyl)-5-methyl-7-propylimidazo[5,1-f][1,2,4]triazin-4(3H)-one]	–	–	–	–	–
0.13	0.022	CCCc1nc(C)c2c(=O)[nH]c(-c3cc(S(=O)(=O)N4CCC(CC(CO)CO)CC4)ccc3OCC)nn12 [Compound 43, 2-(2-ethoxy-5-(4-(3-hydroxy-2-(hydroxymethyl)propyl)piperidin-1-ylsulfonyl)phenyl)-5-methyl-7-propylimidazo[1,5-f][1,2,4]triazin-4(3H)-one]	–	0.022	28.5	–	–
0.022	–	CCCc1nc(C)c2c(=O)[nH]c(-c3cc(S(=O)(=O)N4CCC(CC(C)(CO)CO)CC4)ccc3OCC)nn12 [Compound 47, 2-(2-ethoxy-5-((4-(3-hydroxy-2-(hydroxymethyl)-2-methylpropyl)piperidin-1-yl)sulfonyl)phenyl)-5-methyl-7-propylimidazo[5,1-f][1,2,4]triazin-4(3H)-one]	–	–	39.0	–	–
–	0.0421	CCCc1nn(C)c2c(=O)[nH]c(-c3cc(S(=O)(=O)N4CCN(C)CC4)ccc3OCC)nc12 [Sildenafil, 5-(2-ethoxy-5-((4-methylpiperazin-1-yl)sulfonyl)phenyl)-1-methyl-3-propyl-1,6-dihydro-7H-pyrazolo[4,3-d]pyrimidin-7-one, reference compound]	–	0.0419	–	–	–

Structure (SMILES)	IC50 [2] [nM]	fraction unbound [1, 5]	% Bound in human plasma [1] [%]	fraction unbound [1, 4]	Ratio Maximum cGMP increase vs Baseline (Human Platelets)	Concentration (nM) for 3-fold or 2-fold* cGMP increase vs Baseline ([3]; 2-fold increase (values marked *))	Ratio Maximum cGMP increase vs Baseline ([3]; 5 mM GSH, incubation 2 h)
CCCc1nn(C)c2c(=O)[nH]c(-c3cc(S(=O)(=O)N4CCC(C(O)C(CO[N+](=O)[O-])CO[N+](=O)[O-])CC4)ccc3OCC)nc12 (racemic) [Compound 1i, 2-((1-((4-ethoxy-3-(1-methyl-7-oxo-3-propyl-6,7-dihydro-1H-pyrazolo[4,3-d]pyrimidin-5-yl)phenyl)sulfonyl)piperidin-4-yl)(hydroxy)methyl)propane-1,3-diyl dinitrate]	4.2	–	99.85	0.0015	–	–	–
CCCc1nc(C)c2c(=O)[nH]c(-c3cc(S(=O)(=O)N4CCC(C(O)(CCO)CCO[N+](=O)[O-])CC4)ccc3OCC)nn12 (stereo not drawn) [Compound 2g, 3-(1-((4-ethoxy-3-(5-methyl-4-oxo-7-propyl-3,4-dihydroimidazo[5,1-f][1,2,4]triazin-2-yl)phenyl)sulfonyl)piperidin-4-yl)-3,5-dihydroxypentyl nitrate]	0.37	–	98.29	0.0171	183.5	22.2* nM	109.1
CCCc1nc(C)c2c(=O)[nH]c(-c3cc(S(=O)(=O)N4CCC(C(O)(CCO[N+](=O)[O-])CCO[N+](=O)[O-])CC4)ccc3OCC)nn12 [Compound 2h, 3-(1-((4-ethoxy-3-(5-methyl-4-oxo-7-propyl-3,4-dihydroimidazo[5,1-f][1,2,4]triazin-2-yl)phenyl)sulfonyl)piperidin-4-yl)-3-hydroxypentane-1,5-diyl dinitrate]	1	–	99.77	0.0023	171.3	–	–
CCCc1nc(C)c2c(=O)[nH]c(-c3cc(S(=O)(=O)N4CCC(C(O)C(CO[N+](=O)[O-])CO[N+](=O)[O-])CC4)ccc3OCC)nn12 (stereo not drawn) [Compound 2i, 2-((1-((4-ethoxy-3-(5-methyl-4-oxo-7-propyl-3,4-dihydroimidazo[5,1-f][1,2,4]triazin-2-yl)phenyl)sulfonyl)piperidin-4-yl)(hydroxy)methyl)propane-1,3-diyl dinitrate]	1.5	–	99.99	0.0001	932.9	–	–
CCCc1nc(C)c2c(=O)[nH]c(-c3cc(S(=O)(=O)N4CCC(CC(CO[N+](=O)[O-])CO[N+](=O)[O-])CC4)ccc3OCC)nn12 [Compound 2m, 2-((1-((4-ethoxy-3-(5-methyl-4-oxo-7-propyl-3,4-dihydroimidazo[5,1-f][1,2,4]triazin-2-yl)phenyl)sulfonyl)piperidin-4-yl)methyl)propane-1,3-diyl dinitrate]	0.44	–	99.92	0.0008	262.3	–	–
CCCc1nc(C)c2c(=O)[nH]c(-c3cc(S(=O)(=O)N4CCC(CC(CO)CO[N+](=O)[O-])CC4)ccc3OCC)nn12 (stereo not drawn) [Compound 2n, 3-(1-((4-ethoxy-3-(5-methyl-4-oxo-7-propyl-3,4-dihydroimidazo[5,1-f][1,2,4]triazin-2-yl)phenyl)sulfonyl)piperidin-4-yl)-2-(hydroxymethyl)propyl nitrate]	0.47	–	99.48	0.0052	161.0	–	–
